Laboratory results reported in US20200000087A1, “COMPOSITIONS FOR APPLICATION TO AERIAL PARTS OF PLANTS” (EXOSECT LIMITED, priority 2017, published 2020).
Read-outs that look alike come from different tables or passages of the source.

Tests used:
[1] = tested on: German cockroach, Blattella germanica; details: cited from earlier work
[2] = tested on: Zymoseptoria tritici (formerly Septoria tritici); experiment: Translaminar activity of Azoxystrobin formulated in Entostat against Z. tritici on wheat; format: in vivo; details: control of Zymoseptoria tritici; compared with conventional formulation
Source text: • Test item type and Entostat SC contains in 300 g/L Entostat (Polyethylene contents: wax variant), with the wax component formulated with 81.8 g/L Azoxystrobin (8.18% w/w Azoxystrobin in SC) • Test item rate: The Entostat formulation was applied at a rate 2.68 L/ha delivering 219 g a.i/ha (which delivers Azoxystar's maximum label amount of active ingredient). • Reference item type Azoxystar—SC Strobilurin fungicide containing […] and contents: of Azoxystrobin (22.9 w/w Azoxystrobin in SC). • Reference item rate: Azoxystar was applied at the maximum recommended label rate (0.88 L/ha delivering 219 g a.i/ha) • Application interval: Once at wheat growth stage 12
200 square plastic pots (7×7×8 cm) were filled with J. Arthur Bower No. 1 seedling compost and drenched with tap water. Into each pot six spring wheat (T. aestivum cv. KWS Kielder) seeds were double sown. The pots were placed within four Secret Jardin 120 growth tents in a fully randomised block design of 40 blocks (5 pots per block). All plants were grown under a light, temperature and relative humidity (RH) regime of 16:8 light/dark, 20° C./17° C. and 80% RH. Pots were watered via capillary matting with tap water when required. No additional nutrients were supplied throughout the study. Fourteen days after sowing the six plants in each pot were reduced to three of uniform size. […]

[3] = Azoxystrobin retention on maize seed after Heubach mechanical stress (GC-ECD); format: physicochemical
Experimental: • Test item type and 1. Polyethylene Entostat (W3800) containing 499 mg/g contents: Azoxystrobin fungicide. • 2. Carnauba Entostat (W3738) containing 435 mg/g Azoxystrobin fungicide. • Test item rate: When using a commercial standard biological efficacy in maize is observed at […] seed. W3800 and W3738 were applied at […] of that commercial standard a.s. rate Table 1. • Application interval: Single application at the start of the study • Supplier: Entostat, Exosect, UK • Azoxystrobin, Albaugh, USA. • Storage: Pesticide cabinet in formulation laboratory, Exosect
The independent factors were, dry powder seed treatment formulation type (W3800 and W3738) and Azoxystrobin application rate (Low, Medium, and High). Residues of the active ingredient Azoxystrobin recovered from maize before and after mechanical stress were quantified. Each treatment will be replicated ten times. Work involving the Heubach Dustmeter was conducted according to know standard procedures.
Seeds were equilibrated in incubator 308 at 20° C.±2° C. and at 50%±10% relative humidity for at least 48 hours prior to testing.
Treatments were weighed into sterile 1 L Duran bottles along with 500 g of maize seeds. The treatments were homogenized for 30 seconds by gently agitating using the Stuart Rotator with MIX2040 attachment. 50 maize seeds were removed from each batch, weighed, and placed in a bioassay jar for pre mechanical stress quality control analysis. One 100 g sample were removed from each batch.
The 100 g sample was mechanically stressed in the Heubach Dustmeter (Heubach GMbh, Heubachstrasse7, 38685 Langelsheim), following the procedures outlined in TDRF311. Work involving the Heubach Dustmeter was conducted between 23° C. and 29° C. and 30% and 70% relative humidity in Bioassay Room 2. After the cycle, treated seeds were removed from the rotating drum. 50 maize seeds were removed from each batch, weighed, and placed in a bioassay jar for post mechanical stress quality control analysis.
Azoxystrobin present on the seed samples taken before and after Heubach mechanical stress were analysed using gas chromatography with electron capture detector (GC-ECD). From these values the percentage change of Azoxystrobin a.s. retained by the seeds mechanical stress was calculated.
Percentage Azoxystrobin retained on maize seed after mechanical stress was modelled using R (version 3.3.1). After testing for normality using a Shapiro-Wilk normality test, ANOVA was used to analyse the data linear model. Percentage Azoxystrobin retention was modelled as a function of the factors formulations type (W3800 and W3738), Azoxystrobin application rate (0.006259, 0.06259 and 0.6259 g a.s./kg seed) and interactions between the factors. Formulation W3800 at its lowest application (0.006259 g a.s./kg seed) was used as the control.

[4] = tested on: Triticum aestivum (Spring wheat) variety KWS Alderon; experiment: Translaminar (herbicidal) activity of Quizalofop-p-ethyl formulations sprayed on wheat, EPPO PP1/135 assessment; format: in vivo; details: control of volunteer wheat; compared with conventional formulation
[5] = Loading of acetamiprid dry powder seed treatment on seeds; format: physicochemical
[6] = cited from earlier work

CC1(C)[C@H](C(=O)O[C@H](C#N)c2cccc(Oc3ccccc3)c2)[C@@H]1/C=C(\Cl)C(F)(F)F (racemic) [lambda-cyhalothrin]
knock down period ([1]; Emulsifiable Concentrate (EC)): 10.33 min | knock down period ([1]; microencapsulated formulation): 17.16 min

CO/C=C(/C(=O)OC)c1ccccc1Oc1cc(Oc2ccccc2C#N)ncn1 [Azoxystrobin, Methyl (2E)-2-(2-{[6-(2-cyanophenoxy)pyrimidin-4-yl]oxy}phenyl)-3-methoxyacrylate]
effectiveness of Entostat matrix encapsulated formulation as foliar spray [2]: as effective as a conventional Suspension Concentrate (SC) formulation | less Azoxystrobin retained compared to the lowest application rate ([3]; high application rate (0.6259 g a.s./Kg)): 21% | Azoxystrobin retained of original application ([3]; high application rate (0.6259 g a.s./Kg), across formulations): 41% | Azoxystrobin retained of original application ([3]; lowest application rate (0.006259 g a.s./Kg), across formulations W3800 and W3738): 62% | less Azoxystrobin retained compared to the lowest application rate ([3]; medium application rate (0.06259 g a.s./Kg)): 7% | Azoxystrobin retained of original application ([3]; medium application rate (0.06259 g a.s./Kg), across formulations): 55% | dose of Azoxystrobin which remains on the surface of the maize ([3]; medium dose, after mechanical stress): 0.0346 mg·s/kg

CCOC(=O)[C@@H](C)Oc1ccc(Oc2cnc3cc(Cl)ccc3n2)cc1 [Quizalofop-p-ethyl, ethyl (2R)-2-[4-(6-chloroquinoxalin-2-yl)oxyphenoxy]propanoate]
effectiveness of Entostat matrix encapsulated formulation as foliar spray [4]: as effective as a conventional Suspension Concentrate (SC) formulation

C/C(=N\C#N)N(C)Cc1ccc(Cl)nc1 [acetamiprid]
relative percentage loading on seeds ([5]; after 10 fold decrease in powder application): 80% | relative percentage loading on seeds ([5]; before 10 fold decrease in powder application): 52%

CCOP(=S)(OCC)Oc1nc(Cl)c(Cl)cc1Cl [chlorpyrifos]
time to release 50% of the insecticide ([6]; encapsulated formulation, sodium alginate and starch microspheres): 5 days | time to release 50% of chlorpyrifos ([6]; free chlorpyrifos): 1 days
